Measurements reported in the supplement of paper PMC10627819.

Columns and labels:
[1] = test system: B. subtilis 168; assay: fitness (endpoint OD595 vs no drug) (fraction); higher = more growth
Method in brief: (§1)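 Bacterial growth was followed in 384-well plates seeded at OD595 0.01, with 30 µl per well, or 55 µl for S. pneumoniae, in TSB, LB Lennox or CY at 37 °C. OD595 was read every 30 min for 14 h, and each reading had the first reading subtracted as background. Fitness is the background-corrected optical density at entry into stationary phase divided by the robust mean of the no-drug control wells. This ratio is capped at 1.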

[2] = test system: S. aureus DSM 20231; assay: as above
Method in brief: as §1

[3] = test system: S. pneumoniae D39V; assay: as above
Method in brief: as §1

[4] = test system: S. aureus Newman; assay: as above
Method in brief: as §1

[5] = test system: B. subtilis 168; assay: Bliss interaction score (quartile over a dose matrix) (fitness difference); higher = more antagonism (negative = synergy)
Method in brief: (§2)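 Quartiles summarise the Bliss score over technical, biological and donor/recipient replicates, where the score is observed minus expected fitness under a product model. Expected fitness uses single-drug values inferred from combination data. Fitness is OD595 at entry into stationary phase over the plate's robust no-drug mean, capped at 1.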

[6] = test system: S. aureus DSM 20231; assay: as above
Method in brief: as §2

[7] = test system: S. pneumoniae D39V; assay: as above
Method in brief: as §2

[8] = test system: S. aureus Newman; assay: as above
Method in brief: as §2
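Throughout, for Bliss interaction score (quartile over a dose matrix): first quartile when negative (synergy) and third quartile when positive (antagonism).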

Cc1onc(-c2ccccc2)c1C(=O)N[C@@H]1C(=O)N2[C@@H]1SC(C)(C)[C@@H]2C(=O)O [Oxacillin] + Cc1cc(NS(=O)(=O)c2ccc(N)cc2)no1 [Sulfamethoxazol]
fitness
Conditions | partner 1 µg/mL | partner 2 µg/mL | partner 4 µg/mL
[1], first compound 0.002 µg/mL | 0.996 | 0.968 | ≥ 1
[1], first compound 0.004 µg/mL | 0.988 | 0.947 | 0.984
[1], first compound 0.008 µg/mL | 0.93 | 0.929 | 0.915
[2], first compound 0.0156 µg/mL | 0.795 | 0.865 | 0.866
[2], first compound 0.0312 µg/mL | 0.636 | 0.65 | 0.719
[2], first compound 0.0625 µg/mL | 0.469 | 0.462 | 0.485
[3], first compound 0.01 µg/mL | 0.954 | 0.961 | 0.966
[3], first compound 0.02 µg/mL | 0.888 | 0.904 | 0.915
[3], first compound 0.04 µg/mL | 0.273 | 0.32 | 0.395
[4], first compound 0.0156 µg/mL | 0.748 | 0.686 | –
[4], first compound 0.0312 µg/mL | 0.758 | 0.688 | –
[4], first compound 0.0625 µg/mL | 0.63 | 0.624 | 0.556

one replicate
Conditions | fitness
[1], first compound 0.0078 µg/mL, partner 0.5 µg/mL | 0.943
[1], first compound 0.0078 µg/mL, partner 1 µg/mL | 0.864
[1], first compound 0.0078 µg/mL, partner 2 µg/mL | 0.896
[1], first compound 0.0155 µg/mL, partner 0.5 µg/mL | 0.997
[1], first compound 0.0155 µg/mL, partner 1 µg/mL | 0.755
[1], first compound 0.0155 µg/mL, partner 2 µg/mL | 0.877
[1], first compound 0.031 µg/mL, partner 0.5 µg/mL | 0.921
[1], first compound 0.031 µg/mL, partner 1 µg/mL | 0.9
[1], first compound 0.031 µg/mL, partner 2 µg/mL | 0.866
[1], first compound 0.075 µg/mL, partner 1 µg/mL | 0.49
[1], first compound 0.075 µg/mL, partner 2 µg/mL | 0.454
[1], first compound 0.075 µg/mL, partner 4 µg/mL | 0.529
[1], first compound 0.15 µg/mL, partner 1 µg/mL | 0.0391
[1], first compound 0.15 µg/mL, partner 2 µg/mL | 0.0283
[1], first compound 0.15 µg/mL, partner 4 µg/mL | 0.0224
[1], first compound 0.3 µg/mL, partner 1 µg/mL | 0.0079
[1], first compound 0.3 µg/mL, partner 2 µg/mL | 0.0431
[1], first compound 0.3 µg/mL, partner 4 µg/mL | 0.0098
[4], first compound 0.0156 µg/mL, partner 8 µg/mL | 0.9
[4], first compound 0.0312 µg/mL, partner 8 µg/mL | 0.845
[4], first compound 0.0625 µg/mL, partner 8 µg/mL | 0.783

Conditions | Bliss interaction score
[5] | 0.0542
[6] | -0.0464
[7] | 0.0796
[8] | -0.0519

C[n+]1ccc(-c2cc[n+](C)cc2)cc1 [Paraquat] + CC1=C\[C@@H](O)CC(=O)Cc2nc(co2)C(=O)N2CCC=C2C(=O)O[C@H](C(C)C)[C@H](C)/C=C/C(=O)NC\C=C\1 [Virginiamycin M1]
fitness
Conditions | first compound 1.25 µg/mL | first compound 1.5 µg/mL | first compound 2.5 µg/mL | first compound 3 µg/mL | first compound 5 µg/mL | first compound 6 µg/mL
[1], partner 0.0625 µg/mL | 0.951 | – | 0.934 | – | 0.819 | –
[1], partner 0.125 µg/mL | 0.918 | – | 0.934 | – | 0.856 | –
[1], partner 0.25 µg/mL | 0.93 | – | 0.95 | – | 0.893 | –
[2], partner 0.0625 µg/mL | 0.912 | – | 0.897 | – | 0.872 | –
[2], partner 0.125 µg/mL | 0.967 | – | 0.981 | – | 0.936 | –
[2], partner 0.25 µg/mL | 0.935 | – | 0.882 | – | 0.934 | –
[3], partner 0.5 µg/mL | – | 0.987 | – | 0.988 | – | 0.991
[3], partner 1 µg/mL | – | 0.991 | – | 0.978 | – | 0.967
[3], partner 2 µg/mL | – | 0.937 | – | 0.93 | – | 0.897

fitness, one replicate
Conditions | first compound 1.25 µg/mL | first compound 1.5 µg/mL | first compound 2.5 µg/mL | first compound 3 µg/mL | first compound 5 µg/mL | first compound 6 µg/mL
[2], partner 0.5 µg/mL | 0.831 | – | 0.901 | – | 0.858 | –
[2], partner 1 µg/mL | 0.781 | – | 0.848 | – | 0.898 | –
[3], partner 0.15 µg/mL | – | ≥ 1 | – | ≥ 1 | – | 0.975
[3], partner 0.3 µg/mL | – | ≥ 1 | – | ≥ 1 | – | 0.948
[4], partner 0.0625 µg/mL | 0.883 | – | 0.93 | – | 0.863 | –
[4], partner 0.125 µg/mL | 0.885 | – | 0.934 | – | 0.894 | –
[4], partner 0.25 µg/mL | 0.868 | – | 0.9 | – | 0.929 | –
[4], partner 0.5 µg/mL | 0.862 | – | 0.852 | – | 0.908 | –
[4], partner 1 µg/mL | 0.949 | – | 0.959 | – | 0.971 | –
[4], partner 2 µg/mL | 0.862 | – | 0.848 | – | 0.855 | –

Conditions | Bliss interaction score
[5] | 0.0473
[6] | 0.0744
[7] | -0.0275
[8] | 0.0334

C[n+]1ccc(-c2cc[n+](C)cc2)cc1 [Paraquat] + CCN(CC)CCOC(=O)c1ccc(N)cc1 [Procaine]
fitness
Conditions | first compound 1.25 µg/mL | first compound 1.5 µg/mL | first compound 2.5 µg/mL | first compound 3 µg/mL | first compound 5 µg/mL | first compound 6 µg/mL
[1], partner 85.5 µg/mL | 0.954 | – | 0.877 | – | 0.813 | –
[1], partner 171 µg/mL | 0.943 | – | 0.935 | – | 0.837 | –
[1], partner 342 µg/mL | 0.89 | – | 0.89 | – | 0.812 | –
[2], partner 85.5 µg/mL | 0.906 | – | 0.944 | – | 0.95 | –
[2], partner 171 µg/mL | 0.936 | – | 0.981 | – | 0.996 | –
[2], partner 342 µg/mL | 0.966 | – | 0.97 | – | 0.98 | –
[3], partner 85.5 µg/mL | – | ≥ 1 | – | ≥ 1 | – | ≥ 1
[3], partner 171 µg/mL | – | ≥ 1 | – | 0.998 | – | ≥ 1
[3], partner 342 µg/mL | – | 0.988 | – | 0.971 | – | 0.951
[4], partner 85.5 µg/mL | 0.959 | – | 0.917 | – | 0.948 | –
[4], partner 171 µg/mL | 0.956 | – | 0.909 | – | 0.951 | –
[4], partner 342 µg/mL | 0.944 | – | 0.947 | – | 0.937 | –

Conditions | Bliss interaction score
[5] | 0.0621
[6] | 0.0567
[7] | 0.0315
[8] | 0.0516

C[n+]1ccc(-c2cc[n+](C)cc2)cc1 [Paraquat] + CN1C2=CC=CC=C2N=C3C1=CC=CC3=O [Pyocyanin]
fitness
Conditions | first compound 1.25 µg/mL | first compound 1.5 µg/mL | first compound 2.5 µg/mL | first compound 3 µg/mL | first compound 5 µg/mL | first compound 6 µg/mL
[1], partner 1.25 µg/mL | 0.918 | – | 0.903 | – | 0.802 | –
[1], partner 2.5 µg/mL | 0.866 | – | 0.838 | – | 0.673 | –
[1], partner 5 µg/mL | 0.721 | – | 0.707 | – | 0.534 | –
[2], partner 1.25 µg/mL | 0.918 | – | 0.931 | – | 0.905 | –
[2], partner 2.5 µg/mL | 0.891 | – | 0.879 | – | 0.858 | –
[2], partner 5 µg/mL | 0.627 | – | 0.647 | – | 0.595 | –
[3], partner 0.325 µg/mL | – | ≥ 1 | – | ≥ 1 | – | ≥ 1
[3], partner 0.65 µg/mL | – | 0.954 | – | 0.97 | – | 0.955
[4], partner 1.25 µg/mL | 0.838 | – | 0.799 | – | 0.825 | –
[4], partner 2.5 µg/mL | 0.821 | – | 0.776 | – | 0.751 | –
[4], partner 5 µg/mL | 0.401 | – | 0.382 | – | 0.366 | –

[3], partner 1.3 µg/mL, one replicate
Conditions | fitness
first compound 1.5 µg/mL | 0.528
first compound 3 µg/mL | 0.597
first compound 6 µg/mL | 0.601

Conditions | Bliss interaction score
[5] | -0.0646
[6] | -0.0554
[7] | -0.0783
[8] | 0.0765
